pIC50: −log10 of the molar value.
Test system: 349418-098-R-PDC complex spheroid viability
Experiment: Anticancer human tumor 349418-098-R-PDC patient-derived lung adenocarcinoma cell line growth inhibition [RAS]
Conditions: for pIC50: curve of first compound; for viability, T/C: stronger effect = lower value
In short: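 Tumour cells grown as complex spheroids with HUVEC endothelial cells and mesenchymal stem cells, treated with RAS pathway inhibitor combinations. Each agent spans half-log steps from near clinical Cmax, or 10 microM where Cmax is unknown.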

[1] = second compound 0.00316 µM, first compound 0.00316 µM
[2] = second compound 0.00316 µM, first compound 0.01 µM
[3] = second compound 0.00316 µM, first compound 0.0316 µM
[4] = second compound 0.00316 µM, first compound 0.1 µM
[5] = second compound 0.00316 µM, first compound 0.316 µM
[6] = second compound 0.00316 µM, first compound 1 µM
[7] = second compound 0.01 µM, first compound 0.00316 µM
[8] = second compound 0.01 µM, first compound 0.01 µM
[9] = second compound 0.01 µM, first compound 0.0316 µM
[10] = second compound 0.01 µM, first compound 0.1 µM
[11] = second compound 0.01 µM, first compound 0.316 µM
[12] = second compound 0.01 µM, first compound 1 µM
[13] = second compound 0.0316 µM, first compound 0.00316 µM
[14] = second compound 0.0316 µM, first compound 0.01 µM
[15] = second compound 0.0316 µM, first compound 0.0316 µM
[16] = second compound 0.0316 µM, first compound 0.1 µM
[17] = second compound 0.0316 µM, first compound 0.316 µM
[18] = second compound 0.0316 µM, first compound 1 µM
[19] = second compound 0.1 µM, first compound 0.00316 µM
[20] = second compound 0.1 µM, first compound 0.01 µM
[21] = second compound 0.1 µM, first compound 0.0316 µM
[22] = second compound 0.1 µM, first compound 0.1 µM
[23] = second compound 0.1 µM, first compound 0.316 µM
[24] = second compound 0.1 µM, first compound 1 µM
[25] = second compound 0.316 µM, first compound 0.00316 µM
[26] = second compound 0.316 µM, first compound 0.01 µM
[27] = second compound 0.316 µM, first compound 0.0316 µM
[28] = second compound 0.316 µM, first compound 0.1 µM
[29] = second compound 0.316 µM, first compound 0.316 µM
[30] = second compound 0.316 µM, first compound 1 µM
[31] = second compound 1 µM, first compound 0.00316 µM
[32] = second compound 1 µM, first compound 0.01 µM
[33] = second compound 1 µM, first compound 0.0316 µM
[34] = second compound 1 µM, first compound 0.1 µM
[35] = second compound 1 µM, first compound 0.316 µM
[36] = second compound 1 µM, first compound 1 µM
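Note: spheroids exposed to compound for seven days before viability readout.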

CC1(C)CCC(Nc2ncc(C(F)(F)F)c(-c3c[nH]c4c(P(C)(C)=O)c(C#N)ccc34)n2)CN1 (stereo unspecified) + C#Cc1c(F)ccc2cc(O)cc(-c3ncc4c(N5CC6CCC(C5)N6)nc(OCC56CCCN5CC(F)C6)nc4c3F)c12
pIC50 (second compound 0.0316 µM): 8.95 | pIC50 (second compound 0.1 µM): > 9.02 | pIC50 (second compound 0.316 µM): > 9.02 | pIC50 (second compound 1 µM): 8.87 | pIC50 (second compound 3.16 µM): > 9.02 | pIC50 (second compound 10 µM): > 9.02 | viability, T/C (second compound 0.0316 µM, first compound 0.000949 µM): 54.5% | viability, T/C (second compound 0.0316 µM, first compound 0.003 µM): 25.6% | viability, T/C (second compound 0.0316 µM, first compound 0.00949 µM): 14.3% | viability, T/C (second compound 0.0316 µM, first compound 0.03 µM): 11.7% | viability, T/C (second compound 0.0316 µM, first compound 0.0949 µM): 11.1% | viability, T/C (second compound 0.0316 µM, first compound 0.3 µM): 7.01% | viability, T/C (second compound 0.1 µM, first compound 0.000949 µM): 34.8% | viability, T/C (second compound 0.1 µM, first compound 0.003 µM): 24% | viability, T/C (second compound 0.1 µM, first compound 0.00949 µM): 17% | viability, T/C (second compound 0.1 µM, first compound 0.03 µM): 9.95% | viability, T/C (second compound 0.1 µM, first compound 0.0949 µM): 8.49% | viability, T/C (second compound 0.1 µM, first compound 0.3 µM): 8.13% | viability, T/C (second compound 0.316 µM, first compound 0.000949 µM): 49.9% | viability, T/C (second compound 0.316 µM, first compound 0.003 µM): 26.9% | viability, T/C (second compound 0.316 µM, first compound 0.00949 µM): 12.6% | viability, T/C (second compound 0.316 µM, first compound 0.03 µM): 10.3% | viability, T/C (second compound 0.316 µM, first compound 0.0949 µM): 10.5% | viability, T/C (second compound 0.316 µM, first compound 0.3 µM): 8.25% | viability, T/C (second compound 1 µM, first compound 0.000949 µM): 57.1% | viability, T/C (second compound 1 µM, first compound 0.003 µM): 33.4% | viability, T/C (second compound 1 µM, first compound 0.00949 µM): 13% | viability, T/C (second compound 1 µM, first compound 0.03 µM): 10.9% | viability, T/C (second compound 1 µM, first compound 0.0949 µM): 11.2% | viability, T/C (second compound 1 µM, first compound 0.3 µM): 8.31% | viability, T/C (second compound 3.16 µM, first compound 0.000949 µM): 43.3% | viability, T/C (second compound 3.16 µM, first compound 0.003 µM): 24.5% | viability, T/C (second compound 3.16 µM, first compound 0.00949 µM): 12.6% | viability, T/C (second compound 3.16 µM, first compound 0.03 µM): 10.2% | viability, T/C (second compound 3.16 µM, first compound 0.0949 µM): 9.93% | viability, T/C (second compound 3.16 µM, first compound 0.3 µM): 8.57% | viability, T/C (second compound 10 µM, first compound 0.000949 µM): 48.4% | viability, T/C (second compound 10 µM, first compound 0.003 µM): 23.8% | viability, T/C (second compound 10 µM, first compound 0.00949 µM): 16.3% | viability, T/C (second compound 10 µM, first compound 0.03 µM): 10.4% | viability, T/C (second compound 10 µM, first compound 0.0949 µM): 9.78% | viability, T/C (second compound 10 µM, first compound 0.3 µM): 7.07%

C=CC(=O)Nc1cc(Nc2nccc(-c3cn(C)c4ccccc34)n2)c(OC)cc1N(C)CCN(C)C + C=CC(=O)N1CCN(c2nc(OCC3CCCN3C)nc3c(F)c(-c4nc(N)cc(C)c4C(F)(F)F)c(Cl)cc23)C(C)C1
pIC50 (second compound 0.00316 µM): < 6.00 | pIC50 (second compound 0.01 µM): < 6.00 | pIC50 (second compound 0.0316 µM): < 6.00 | pIC50 (second compound 0.1 µM): < 6.00 | pIC50 (second compound 0.316 µM): < 6.00 | pIC50 (second compound 1 µM): < 6.00 | viability, T/C [1]: 80.7% | viability, T/C [2]: 119% | viability, T/C [3]: 91.5% | viability, T/C [4]: 69.9% | viability, T/C [5]: 64.8% | viability, T/C [6]: 72.9% | viability, T/C [7]: 83.7% | viability, T/C [8]: 97.5% | viability, T/C [9]: 90.5% | viability, T/C [10]: 71.8% | viability, T/C [11]: 61.3% | viability, T/C [12]: 56.6% | viability, T/C [13]: 86.6% | viability, T/C [14]: 129% | viability, T/C [15]: 86.1% | viability, T/C [16]: 96% | viability, T/C [17]: 80.5% | viability, T/C [18]: 52.8% | viability, T/C [19]: 65.5% | viability, T/C [20]: 123% | viability, T/C [21]: 89.4% | viability, T/C [22]: 75.4% | viability, T/C [23]: 87.9% | viability, T/C [24]: 69.2% | viability, T/C [25]: 74.9% | viability, T/C [26]: 99.9% | viability, T/C [27]: 100% | viability, T/C [28]: 117% | viability, T/C [29]: 82.6% | viability, T/C [30]: 67% | viability, T/C [31]: 90.8% | viability, T/C [32]: 96.9% | viability, T/C [33]: 81.7% | viability, T/C [34]: 88.4% | viability, T/C [35]: 88.6% | viability, T/C [36]: 65.6%

O=C(c1ccc(F)c(F)c1Nc1ccc(I)cc1F)N1CC(O)([C@@H]2CCCCN2)C1 + C=CC(=O)N1CCN(c2nc(OCC3CCCN3C)nc3c(F)c(-c4nc(N)cc(C)c4C(F)(F)F)c(Cl)cc23)C(C)C1
pIC50 (second compound 0.00316 µM): > 8.50 | pIC50 (second compound 0.01 µM): > 8.50 | pIC50 (second compound 0.0316 µM): > 8.50 | pIC50 (second compound 0.1 µM): > 8.50 | pIC50 (second compound 0.316 µM): > 8.50 | pIC50 (second compound 1 µM): > 8.50 | viability, T/C [1]: 39.9% | viability, T/C [2]: 32.3% | viability, T/C [3]: 28.5% | viability, T/C [4]: 12.9% | viability, T/C [5]: 5.88% | viability, T/C [6]: 4.12% | viability, T/C [7]: 37.7% | viability, T/C [8]: 28.2% | viability, T/C [9]: 24.3% | viability, T/C [10]: 13.2% | viability, T/C [11]: 7.23% | viability, T/C [12]: 4.54% | viability, T/C [13]: 39% | viability, T/C [14]: 32.8% | viability, T/C [15]: 28.5% | viability, T/C [16]: 15.1% | viability, T/C [17]: 6.99% | viability, T/C [18]: 4.79% | viability, T/C [19]: 36.4% | viability, T/C [20]: 33.6% | viability, T/C [21]: 26.6% | viability, T/C [22]: 13.5% | viability, T/C [23]: 6.66% | viability, T/C [24]: 4.97% | viability, T/C [25]: 29.1% | viability, T/C [26]: 32.5% | viability, T/C [27]: 32.4% | viability, T/C [28]: 12% | viability, T/C [29]: 7.61% | viability, T/C [30]: 5.27% | viability, T/C [31]: 42.3% | viability, T/C [32]: 38.8% | viability, T/C [33]: 26.8% | viability, T/C [34]: 16.4% | viability, T/C [35]: 7.89% | viability, T/C [36]: 5%

— PubChem BioAssay AID2060904 (Molecular Pharmacology Branch, DTP, NCI, 2025)
